Tests used:
Assay type in all cases: biochemical
panel of kinases = target: T1, panel of kinases (Homo sapiens, UniProt P51813); assay: Inhibition of a panel of kinases (in vitro HotSpot kinase assay, 33P-ATP, 1 μM ATP), other kinases; conditions: BMX wild-type, read-out: BMX-WT IC50
T1 sequence (P51813 1-675): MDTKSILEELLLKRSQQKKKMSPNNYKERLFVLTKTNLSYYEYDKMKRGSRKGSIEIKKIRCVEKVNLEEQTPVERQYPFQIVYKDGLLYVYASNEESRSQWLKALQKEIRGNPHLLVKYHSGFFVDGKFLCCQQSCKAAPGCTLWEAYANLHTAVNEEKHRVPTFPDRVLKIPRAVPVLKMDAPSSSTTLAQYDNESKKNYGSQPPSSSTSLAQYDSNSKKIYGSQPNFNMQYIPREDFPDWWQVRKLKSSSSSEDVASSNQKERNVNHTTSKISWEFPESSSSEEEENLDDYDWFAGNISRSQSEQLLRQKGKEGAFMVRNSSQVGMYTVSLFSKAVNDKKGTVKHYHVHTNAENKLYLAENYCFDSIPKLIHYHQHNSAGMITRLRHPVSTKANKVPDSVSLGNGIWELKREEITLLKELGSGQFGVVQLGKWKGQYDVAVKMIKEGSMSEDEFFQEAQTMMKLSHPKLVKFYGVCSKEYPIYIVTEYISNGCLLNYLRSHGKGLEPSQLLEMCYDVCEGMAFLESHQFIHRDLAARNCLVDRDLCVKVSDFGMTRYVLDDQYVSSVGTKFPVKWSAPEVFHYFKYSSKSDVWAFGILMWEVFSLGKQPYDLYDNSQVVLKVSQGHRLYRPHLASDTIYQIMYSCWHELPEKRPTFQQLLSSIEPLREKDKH
Outline: (§1)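 At 1 μM ATP spiked with 33P-ATP, substrate phosphorylation by the purified enzymes gives the extent of inhibition.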

Btk = target: T2, Btk (Homo sapiens, UniProt Q06187); assay: Btk in vitro inhibitory activity (one of Method A TR-FRET, Method B electrophoretic mobility shift, Method C radiometric filter binding); conditions: wild-type Btk; read-out: Btk-WT IC50
T2 construct: purified from insect cells as a full-length construct containing a N-terminal 6X-His tag; His6 (N); made in house; host or cells: insect cells (Method C)
Outline: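 Three alternative formats were used. A radiometric filter-binding read used 8 nM full-length His-BTK with 0.2 mg/mL poly(Glu-Tyr) 4:1 (C); microfluidic separation of 1 μM FAM-peptide by 1 nM BTK gave IC50 from 12-point curves (B); TR-FRET at Km ATP, 0.5 nM Btk, gave Ki(app)-derived IC50 (A).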

TEC = target: T3, TEC (Homo sapiens, UniProt P42680); assay: Inhibition of a panel of kinases (in vitro HotSpot kinase assay, 33P-ATP, 1 μM ATP); conditions: for IC50: HotSpot kinase assay, 1 μM ATP; for TEC/Btk: ratio of TEC IC50 to Btk IC50 (selectivity)
T3 sequence (P42680 1-631): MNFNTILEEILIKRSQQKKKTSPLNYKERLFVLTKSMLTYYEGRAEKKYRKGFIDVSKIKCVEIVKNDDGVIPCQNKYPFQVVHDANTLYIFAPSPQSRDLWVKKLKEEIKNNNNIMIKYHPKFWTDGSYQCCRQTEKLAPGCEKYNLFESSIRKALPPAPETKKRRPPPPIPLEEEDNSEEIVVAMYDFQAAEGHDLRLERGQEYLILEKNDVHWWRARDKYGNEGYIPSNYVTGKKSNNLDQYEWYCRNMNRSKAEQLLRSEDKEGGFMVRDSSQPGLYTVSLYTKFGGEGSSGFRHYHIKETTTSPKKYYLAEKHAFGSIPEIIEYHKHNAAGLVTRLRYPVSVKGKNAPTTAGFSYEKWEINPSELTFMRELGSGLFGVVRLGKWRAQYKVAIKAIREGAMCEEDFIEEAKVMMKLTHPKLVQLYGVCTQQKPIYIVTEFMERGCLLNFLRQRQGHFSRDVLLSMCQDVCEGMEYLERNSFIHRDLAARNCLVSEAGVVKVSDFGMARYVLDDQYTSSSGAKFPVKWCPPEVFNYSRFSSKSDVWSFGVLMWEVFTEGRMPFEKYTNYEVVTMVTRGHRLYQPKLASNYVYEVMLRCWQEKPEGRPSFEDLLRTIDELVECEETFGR
Outline: as §1

T2 sequence (Q06187 whole entry): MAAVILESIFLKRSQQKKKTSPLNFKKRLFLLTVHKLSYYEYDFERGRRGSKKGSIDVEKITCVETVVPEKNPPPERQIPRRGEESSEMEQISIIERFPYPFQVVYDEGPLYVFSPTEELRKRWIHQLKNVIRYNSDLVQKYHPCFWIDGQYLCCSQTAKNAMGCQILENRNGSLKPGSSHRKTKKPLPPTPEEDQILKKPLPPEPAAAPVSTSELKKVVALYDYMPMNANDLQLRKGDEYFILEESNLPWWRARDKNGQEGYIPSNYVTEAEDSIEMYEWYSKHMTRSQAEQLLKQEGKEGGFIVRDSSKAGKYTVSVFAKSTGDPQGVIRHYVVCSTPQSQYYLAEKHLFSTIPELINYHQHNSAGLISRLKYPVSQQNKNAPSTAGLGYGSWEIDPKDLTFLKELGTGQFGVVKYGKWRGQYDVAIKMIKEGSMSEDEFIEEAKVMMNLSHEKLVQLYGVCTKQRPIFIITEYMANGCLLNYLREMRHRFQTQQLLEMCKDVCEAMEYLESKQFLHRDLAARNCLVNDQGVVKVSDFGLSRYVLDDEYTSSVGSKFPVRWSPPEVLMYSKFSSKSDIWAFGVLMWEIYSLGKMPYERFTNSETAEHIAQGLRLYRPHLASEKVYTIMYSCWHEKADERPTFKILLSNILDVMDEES

IC50 (panel of kinases) [nM]	IC50 (Btk) [nM]	IC50 (TEC) [nM]	TEC/Btk (TEC)	SMILES
1400	4.28	1470	343	CC(=O)N[C@@H]1CCN(c2n[nH]c3nccc(-c4ccc(CNC(=O)c5nc(C(C)C)no5)c(F)c4)c23)C1 [Example 200, N-[(4-{3-[(3R)-3-acetamidopyrrolidin-1-yl]-1H-pyrazolo[3,4-b]pyridin-4-yl}-2-fluorophenyl)methyl]-3-(propan-2-yl)-1,2,4-oxadiazole-5-carboxamide]
6700	10.2	8340	818	C[C@@H](NC(=O)c1nc(C(C)(C)C)no1)c1ccc(-c2ccnc3[nH]nc(NC4CCCC4)c23)cc1 [Example 201, 3-tert-butyl-N-[(1R)-1-{4-[3-(cyclopentylamino)-1H-pyrazolo[3,4-b]pyridin-4-yl]phenyl}ethyl]-1,2,4-oxadiazole-5-carboxamide]
> 10000	> 1000	> 10000	>10000	C[C@@H](NC(=O)c1cc(C(C)(C)O)on1)c1ccc(-c2ccnc3[nH]nc(NC4CCN(S(C)(=O)=O)CC4)c23)cc1 [Example 203, 5-(2-hydroxypropan-2-yl)-N-{(1R)-1-[4-(3-{[1-(methanesulfonyl)piperidin-4-yl]amino}-1H-pyrazolo[3,4-b]pyridin-4-yl)phenyl]ethyl}-1,2-oxazole-3-carboxamide]
> 10000	> 1000	> 10000	>10000	CC(=O)N1CCC(Nc2n[nH]c3nccc(-c4ccc([C@@H](C)NC(=O)c5cc(C(C)(C)O)on5)cc4)c23)CC1 [Example 204, N-[(1R)-1-(4-{3-[(1-acetylpiperidin-4-yl)amino]-1H-pyrazolo[3,4-b]pyridin-4-yl}phenyl)ethyl]-5-(2-hydroxypropan-2-yl)-1,2-oxazole-3-carboxamide]
1220	0.375	815	2173	CC(C)(C)c1noc(C(=O)NCc2ccc(-c3ccnc4[nH]nc(N5CCC(NC(=O)C6CC6)CC5)c34)cc2F)n1 [Example 207, 3-tert-butyl-N-{[4-(3-{4-[(cyclopropanecarbonyl)amino]piperidin-1-yl}-1H-pyrazolo[3,4-b]pyridin-4-yl)-2-fluorophenyl]methyl}-1,2,4-oxadiazole-5-carboxamide]
2090	0.658	1710	2599	CC(C)(C)c1noc(C(=O)NCc2ccc(-c3ccnc4[nH]nc(N5CCC(NC(=O)c6ccccc6)CC5)c34)cc2F)n1 [Example 208, N-({4-[3-(4-benzamidopiperidin-1-yl)-1H-pyrazolo[3,4-b]pyridin-4-yl]-2-fluorophenyl}methyl)-3-tert-butyl-1,2,4-oxadiazole-5-carboxamide]
2200	1.26	905	718	CCNC(=O)N1C[C@H](Nc2n[nH]c3nccc(-c4ccc(CNC(=O)c5nc(C(C)(C)C)no5)c(F)c4)c23)CC[C@@H]1C [Example 209, (2S,5R)-5-{[4-(4-{[(3-tert-butyl-1,2,4-oxadiazole-5-carbonyl)amino]methyl}-3-fluorophenyl)-1H-pyrazolo[3,4-b]pyridin-3-yl]amino}-N-ethyl-2-methylpiperidine-1-carboxamide]
582	0.186	781	4199	C[C@@H](NC(=O)c1nc(C(C)(C)C)no1)c1ccc(-c2ccnc3[nH]nc(N4CCOCC4)c23)cc1 [Example 219, 3-tert-butyl-N-[(1R)-1-{4-[3-(morpholin-4-yl)-1H-pyrazolo[3,4-b]pyridin-4-yl]phenyl}ethyl]-1,2,4-oxadiazole-5-carboxamide]
5700	1.49	8960	6013	C[C@@H](NC(=O)c1nc(C(C)(C)C)no1)c1ccc(-c2ccnc3[nH]nc(N4CCS(=O)(=O)CC4)c23)cc1 [Example 220, 3-tert-butyl-N-[(1R)-1-{4-[3-(1,1-dioxo-1λ^6-thiomorpholin-4-yl)-1H-pyrazolo[3,4-b]pyridin-4-yl]phenyl}ethyl]-1,2,4-oxadiazole-5-carboxamide]
249	0.0926	289	3121	CC(C)(C)c1noc(C(=O)NCc2ccc(-c3ccnc4[nH]nc(N5CCC(NS(=O)(=O)C6CC6)CC5)c34)cc2F)n1 [Example 224, 3-tert-butyl-N-{[4-(3-{4-[(cyclopropanesulfonyl)amino]piperidin-1-yl}-1H-pyrazolo[3,4-b]pyridin-4-yl)-2-fluorophenyl]methyl}-1,2,4-oxadiazole-5-carboxamide]
2110	1.48	1370	926	COC(=O)N1C[C@H](Nc2n[nH]c3nccc(-c4ccc(CNC(=O)c5noc(C(C)(C)C)n5)c(F)c4)c23)CC[C@@H]1C [Example 226, methyl (2S,5R)-5-{[4-(4-{[(5-tert-butyl-1,2,4-oxadiazole-3-carbonyl)amino]methyl}-3-fluorophenyl)-1H-pyrazolo[3,4-b]pyridin-3-yl]amino}-2-methylpiperidine-1-carboxylate]
704	0.458	205	448	C[C@H]1CC[C@@H](Nc2n[nH]c3nccc(-c4ccc(CNC(=O)c5noc(C(C)(C)C)n5)c(F)c4)c23)CN1C(=O)CO [Example 227, 5-tert-butyl-N-{[2-fluoro-4-(3-{[(3R,6S)-1-(hydroxyacetyl)-6-methylpiperidin-3-yl]amino}-1H-pyrazolo[3,4-b]pyridin-4-yl)phenyl]methyl}-1,2,4-oxadiazole-3-carboxamide]
531	0.383	298	778	CC(=O)N1C[C@H](Nc2n[nH]c3nccc(-c4ccc(CNC(=O)c5noc(C(C)(C)C)n5)c(F)c4)c23)CC[C@@H]1C [Example 229, N-{[4-(3-{[(3R,6S)-1-acetyl-6-methylpiperidin-3-yl]amino}-1H-pyrazolo[3,4-b]pyridin-4-yl)-2-fluorophenyl]methyl}-5-tert-butyl-1,2,4-oxadiazole-3-carboxamide]
856	0.412	472	1146	C[C@H]1CC[C@@H](Nc2n[nH]c3nccc(-c4ccc(CNC(=O)c5noc(C(C)(C)C)n5)c(F)c4)c23)CN1C(=O)N1CCOCC1 [Example 230, 5-tert-butyl-N-{[2-fluoro-4-(3-{[(3R,6S)-6-methyl-1-(morpholine-4-carbonyl)piperidin-3-yl]amino}-1H-pyrazolo[3,4-b]pyridin-4-yl)phenyl]methyl}-1,2,4-oxadiazole-3-carboxamide]
2670	4.24	4610	1087	C[C@@H](NC(=O)c1nc(C(C)(C)C)no1)c1ccc(-c2ccnc3[nH]nc(N4CCNCC4)c23)cc1 [Example 238, 3-tert-butyl-N-[(1R)-1-{4-[3-(piperazin-1-yl)-1H-pyrazolo[3,4-b]pyridin-4-yl]phenyl}ethyl]-1,2,4-oxadiazole-5-carboxamide]

From patent US20180194762A1 (Pharmacyclics LLC, priority 2017, published 2018)
